What is called IC50 is the concentration needed to halve the response being measured. A lower IC50 goes with higher potency.

Data set [1] in a line: Rat telemetry protocol (core body temperature). In kind it is in vivo. The note with it: core body temperature of rats at one hour post dosing (100 μmol/kg, p.o.), relative to vehicle.
A further data set concerns the target T1, human TRPV1 (Homo sapiens, UniProt Q8NER1).
T1 construct: expressed in transfected cells; host or cells: HEK293-F cells, transient transfection
Nature of the data set: Acid activation assay - ratiometric calcium imaging of capsaicin- or acid-induced responses. In kind it is cell-based. Particulars: Example 30 at 3 μM, HEK293-F cells expressing human TRPV1, FIG. 1; for block of TRPV1-mediated increase in intracellular calcium concentration in response to capsaicin: capsaicin 1 μM; for block of TRPV1-mediated increase in intracellular calcium concentration in response to acid: pH 5.5. The procedure:
The differential effects of TRPV1 antagonists on capsaicin- or acid-induced responses were verified by ratiometric calcium imaging. Transiently transfected HEK293-F cells expressing human TRPV1 were incubated with 5 μM Fura-2AM for 30 minutes at 37° C. Intracellular calcium concentration was measured on an imaging system consisting of the X-Cite™ 120 Fluorescence Illumination System (EXFO) and a Digital Camera (C4742-95, Hamamatsu Photonics) connected to an Olympus 1×71 microscope. Through the control of Slide Book 4.2 software, fluorescence was measured during excitation at 340 and 380 nm; the ratio of the fluorescence at both excitation wavelengths (F340/F380) was monitored. D-PBS, pH 7.4 (Invitrogen, catalog no. 14287) was used as the extracellular solution. Acidic buffer was prepared by titrating D-PBS, pH 7.4 with 7 N HCl to pH 5.5. Agonists and antagonists were prepared in the pH 7.4 or 5.5 solutions. Rapid solution switch was achieved by using a ValveLink system. […] Over the 2100-second time course, the cells were continuously perfused with D-PBS, pH7.4 or challenged sequentially with solutions containing Example 30 (3 μM), Example 30 (3 μM) plus capsaicin (1 μM), Example 30 (3 μM) plus acid (pH 5.5), acid (pH 5.5) alone, or capsaicin (1 μM) alone. The black bars above the traces designate addition and duration of solution applications. Spaces between horizontal bars represent periods in which cells were perfused with D-PBS, pH 7.4.

Data set [2] concerns the target T2, human TRPV1 receptor (hTRPV1) (Homo sapiens, UniProt Q8NER1).
T2 construct: expressed in transfected cells
Nature of the data set: Capsaicin activation assay (Ca2+ influx, FLIPR). The note with it: 0.05 μM capsaicin, 1321N1 cells expressing hTRPV1. In kind it is cell-based.

T1 sequence (Q8NER1 whole entry): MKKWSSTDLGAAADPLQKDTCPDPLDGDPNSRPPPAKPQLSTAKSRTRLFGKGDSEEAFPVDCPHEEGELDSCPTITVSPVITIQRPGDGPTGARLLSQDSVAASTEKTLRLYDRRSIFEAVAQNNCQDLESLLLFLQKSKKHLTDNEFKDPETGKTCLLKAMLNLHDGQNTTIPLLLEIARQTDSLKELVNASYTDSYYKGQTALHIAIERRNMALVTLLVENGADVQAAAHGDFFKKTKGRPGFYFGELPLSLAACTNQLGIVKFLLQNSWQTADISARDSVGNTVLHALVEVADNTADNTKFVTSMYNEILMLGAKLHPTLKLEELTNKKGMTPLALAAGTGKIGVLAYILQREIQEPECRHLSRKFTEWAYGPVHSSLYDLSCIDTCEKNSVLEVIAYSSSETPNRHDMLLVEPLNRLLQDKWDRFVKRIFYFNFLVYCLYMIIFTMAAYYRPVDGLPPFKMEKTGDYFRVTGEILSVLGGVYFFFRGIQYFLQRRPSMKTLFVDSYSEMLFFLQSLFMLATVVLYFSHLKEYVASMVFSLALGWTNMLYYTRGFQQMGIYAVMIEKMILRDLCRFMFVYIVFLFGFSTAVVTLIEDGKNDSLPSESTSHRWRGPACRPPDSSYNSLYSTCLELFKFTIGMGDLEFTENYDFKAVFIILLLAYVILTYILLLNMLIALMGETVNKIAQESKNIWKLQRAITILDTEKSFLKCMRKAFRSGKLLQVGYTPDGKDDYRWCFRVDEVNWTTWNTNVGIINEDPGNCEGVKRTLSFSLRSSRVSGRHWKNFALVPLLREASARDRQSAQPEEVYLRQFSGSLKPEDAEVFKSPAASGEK
T2 sequence (Q8NER1 whole entry): as above

Consider `CC1(C)C[C@@H](NC(=O)Nc2cccc3c2C[C@H](O)CC3)c2ccc(F)cc2O1` [Example 30, N-[(4R)-7-fluoro-2,2-dimethyl-3,4-dihydro-2H-chromen-4-yl]-N′-[(7R)-7-hydroxy-5,6,7,8-tetrahydronaphthalen-1-yl]urea], for which the “Δ Temp” value in data set [1] is 1.1 °C. Also, on human TRPV1, the “block of TRPV1-mediated increase in intracellular calcium concentration in response to capsaicin” value was “completely blocked” and the “block of TRPV1-mediated increase in intracellular calcium concentration in response to acid” value was “completely blocked”. This molecule also returned an IC50 in data set [2] of 17 nM.
Consider `CC1(C)C[C@@H](NC(=O)Nc2cccc3c2C[C@@H](O)CC3)c2ccc(F)cc2O1` [Example 31, N-[(4R)-7-fluoro-2,2-dimethyl-3,4-dihydro-2H-chromen-4-yl]-N′-[(7S)-7-hydroxy-5,6,7,8-tetrahydronaphthalen-1-yl]urea], for which the “Δ Temp” value in data set [1] turned out to be 1.0 °C. On human TRPV1, the “block of TRPV1-mediated increase in intracellular calcium concentration in response to capsaicin” value is “completely blocked” and the “block of TRPV1-mediated increase in intracellular calcium concentration in response to acid” value is recorded as “completely blocked”. This molecule also gave an IC50 in data set [2] of 20 nM.

Values taken from patent US8609692B2, “TRPV1 antagonists” (AbbVie Inc., priority 2008, dated 2013).
